Data: patent US20040186181A1, “Method and composition for decreasing ghrelin levels” (InterHealth Nutraceuticals, Incorporated, priority 2003, published 2004)

How the values were obtained:
cholesterol [1] = conditions: animal models; cited from earlier work
DNA = conditions: cited from earlier work
cholesterol [2] = conditions: in vivo; cited from earlier work
[3] = Ingestion of HCA by persons, serum levels and appetite (controlled trials); type: in vivo
From the text: (§1) It has been shown that ingestion of compositions incorporating a salt of (−) hydroxycitric acid (HCA) leads to increased levels of serotonin. Serotonin levels, like ghrelin levels, also are related to NPY, and an increase in serotonin levels is a well-established mechanism of appetite suppression. Ingestion of HCA by persons and rodents results in a decrease in serum leptin and ghrelin levels and an increase in serum serotonin levels.

[4] = Ingestion of HCA by rodents, serum levels; type: in vivo
From the text: as §1

**Q.** For Gymnemic acid, which cholesterol (cholesterol [1]) is on record?
**A.** lower cholesterol

**Q.** Which safety and toxicity (DNA) does the source give for chromium picolinate here?
**A.** damage DNA and be mutagenic

**Q.** For `O=C(O[C@@H]1Cc2c(O)cc(O)cc2O[C@@H]1c1cc(O)c(O)c(O)c1)c1cc(O)c(O)c(O)c1` [EGCG, epigallocatechin gallate], which cholesterol levels (cholesterol [2]) is on record?
**A.** reduce cholesterol levels

**Q.** Which results are given for `O=C(O)CC(O)(C(=O)O)C(O)C(=O)O` (single isomer, unassigned; (-)) [HCA, (−)hydroxycitric acid]?
**A.** appetite ([3]; amount of food remaining on plates, controlled trials): time-dependent decrease in appetite; serum ghrelin levels ([3]; ingestion of HCA): decrease; serum leptin levels ([3]; ingestion of HCA): decrease; serum serotonin levels ([3]; ingestion of HCA): increase; serum ghrelin levels [4]: decrease; serum leptin levels [4]: decrease; serum serotonin levels [4]: increase
